Counter-ions that a name gives are not always drawn.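 Following 48 hours of exposure in 96-well plates, responses at five concentrations were used to interpolate endpoints linearly. GI50 is the concentration that inhibits growth by half.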 The source made the active and inactive calls. Rule as the data show it: active = GI50 up to about 1.1 µM and inactive = higher.
Assays:
Assay in all cases: NCI tumour cell line growth inhibition, 48 h
SF-268 = test system: SF-268
SK-MEL-28 = test system: SK-MEL-28
U-251 = test system: U-251
NCI/ADR-RES = test system: NCI/ADR-RES
EKVX = test system: EKVX
SK-MEL-5 = test system: SK-MEL-5
NCI-H522 = test system: NCI-H522
SF-295 = test system: SF-295
SW-620 = test system: SW-620
OVCAR-3 = test system: OVCAR-3
OVCAR-5 = test system: OVCAR-5
UO-31 = test system: UO-31
HOP-62 = test system: HOP-62
OVCAR-4 = test system: OVCAR-4
SF-539 = test system: SF-539
BT-549 = test system: BT-549
ACHN = test system: ACHN
MOLT-4 = test system: MOLT-4
T47D = test system: T47D
UACC-62 = test system: UACC-62

Structure (SMILES) | GI50 (SF-268) | GI50 (SK-MEL-28) | GI50 (U-251) | GI50 (NCI/ADR-RES) | GI50 (EKVX) | GI50 (SK-MEL-5) | GI50 (NCI-H522) | GI50 (SF-295) | GI50 (SW-620) | GI50 (OVCAR-3) | GI50 (OVCAR-5) | GI50 (UO-31) | GI50 (HOP-62) | GI50 (OVCAR-4) | GI50 (SF-539) | GI50 (BT-549) | GI50 (ACHN) | GI50 (MOLT-4) | GI50 (T47D) | GI50 (UACC-62)
CC(=O)OCC(Br)C1(C)CCC(C(C)(C)Br)O1 (stereo not given) | > 100 µM (inactive) | 79.6 µM (inactive) | 73.5 µM (inactive) | > 100 µM (inactive) | > 100 µM (inactive) | 35.9 µM (inactive) | 28.5 µM (inactive) | > 100 µM (inactive) | 55.6 µM (inactive) | 59.2 µM (inactive) | > 100 µM (inactive) | 39.6 µM (inactive) | > 100 µM (inactive) | 11.2 µM (inactive) | > 100 µM (inactive) | 79.6 µM (inactive) | 94.8 µM (inactive) | 73.8 µM (inactive) | – | –
CN(C)c1cccc2c(S(=O)(=O)NCCCNCCN)cccc12 | 65.6 µM (inactive) | 46.1 µM (inactive) | 29 µM (inactive) | > 100 µM (inactive) | > 100 µM (inactive) | 20.8 µM (inactive) | 48.1 µM (inactive) | 55.2 µM (inactive) | 55.2 µM (inactive) | 62.5 µM (inactive) | 38.1 µM (inactive) | 56.9 µM (inactive) | 67.8 µM (inactive) | 55.2 µM (inactive) | 21.3 µM (inactive) | – | > 100 µM (inactive) | 18.6 µM (inactive) | 49.4 µM (inactive) | 51.2 µM (inactive)
O=C(O)C(C(C(=O)O)P(=O)(O)O)P(=O)(O)O (stereo not given) | > 100 µM (inactive) | > 100 µM (inactive) | > 100 µM (inactive) | – | > 100 µM (inactive) | > 100 µM (inactive) | – | – | > 100 µM (inactive) | > 100 µM (inactive) | > 100 µM (inactive) | > 100 µM (inactive) | – | > 100 µM (inactive) | > 100 µM (inactive) | > 100 µM (inactive) | > 100 µM (inactive) | > 100 µM (inactive) | – | > 100 µM (inactive)
COC(=O)/C=C/c1cc(OC)c2oc(-c3ccc(OC)c(OC)c3)c(C(=O)OC)c2c1 | > 100 µM (inactive) | > 100 µM (inactive) | > 100 µM (inactive) | > 100 µM (inactive) | > 100 µM (inactive) | > 100 µM (inactive) | – | > 100 µM (inactive) | > 100 µM (inactive) | > 100 µM (inactive) | > 100 µM (inactive) | > 100 µM (inactive) | – | > 100 µM (inactive) | – | > 100 µM (inactive) | > 100 µM (inactive) | > 100 µM (inactive) | > 100 µM (inactive) | > 100 µM (inactive)
CCOC(=O)c1ccc(NCc2ccc3oc(=O)c(-c4ccccc4)nc3c2)cc1 | 64.1 µM (inactive) | 30.7 µM (inactive) | 61.2 µM (inactive) | 50.7 µM (inactive) | 52.8 µM (inactive) | 23.6 µM (inactive) | 6.21 µM (inactive) | > 100 µM (inactive) | 21.6 µM (inactive) | 18.7 µM (inactive) | > 100 µM (inactive) | 27 µM (inactive) | > 100 µM (inactive) | 18 µM (inactive) | > 100 µM (inactive) | – | 26.6 µM (inactive) | 15.1 µM (inactive) | 12.4 µM (inactive) | > 100 µM (inactive)
Clc1cccc(C2ON=C(c3ccccc3)N2C23CC4CC(CC(C4)C2)C3)c1Cl (stereo not given) | > 10 µM (inactive) | > 10 µM (inactive) | > 10 µM (inactive) | > 10 µM (inactive) | > 10 µM (inactive) | > 10 µM (inactive) | > 10 µM (inactive) | > 10 µM (inactive) | > 10 µM (inactive) | > 10 µM (inactive) | > 10 µM (inactive) | 5.02 µM (inactive) | > 10 µM (inactive) | > 10 µM (inactive) | > 10 µM (inactive) | – | > 10 µM (inactive) | > 10 µM (inactive) | > 10 µM (inactive) | > 10 µM (inactive)
COC(=O)/C=C1/CCC2[C@@H](C(=O)CC3[C@]2(C)CCC[C@@]3(C)C(=O)OC)C1C (stereo not given in full) | 15 µM (inactive) | 13.3 µM (inactive) | 15.4 µM (inactive) | – | 24 µM (inactive) | 5.69 µM (inactive) | 5.07 µM (inactive) | 17.7 µM (inactive) | 5.86 µM (inactive) | 7.67 µM (inactive) | 20 µM (inactive) | 15.1 µM (inactive) | 21.9 µM (inactive) | 8.73 µM (inactive) | 14.9 µM (inactive) | – | 10.1 µM (inactive) | 4.04 µM (inactive) | – | 10.7 µM (inactive)
C#Cc1cccc(Nc2ncnc3cc(OCCOC)c(OCCOC)cc23)c1 [ERLOTINIB HYDROCHLORIDE] | – | > 100 µM (inactive) | 29.4 µM (inactive) | 7.67 µM (inactive) | – | 1.41 µM (inactive) | – | 16.2 µM (inactive) | > 100 µM (inactive) | – | > 100 µM (inactive) | 3.79 µM (inactive) | 31.3 µM (inactive) | 27.2 µM (inactive) | 15.4 µM (inactive) | – | 0.109 µM (active) | – | – | < 0.01 µM (active)
COC(=O)/C=C(\C)CC/C=C(\C)CCC(O)C(C)(C)O (stereo not given) | – | 17.9 µM (inactive) | 28.2 µM (inactive) | 18.7 µM (inactive) | 41.9 µM (inactive) | 16.6 µM (inactive) | – | 23.1 µM (inactive) | 22.7 µM (inactive) | 17.9 µM (inactive) | 60.4 µM (inactive) | 39.2 µM (inactive) | 21.8 µM (inactive) | 48.5 µM (inactive) | 18.7 µM (inactive) | 29 µM (inactive) | 25.6 µM (inactive) | 15.2 µM (inactive) | – | 25.1 µM (inactive)
O=C(O)c1ccc(Nc2cnc3cc(C(F)(F)F)ccc3n2)cc1 | > 100 µM (inactive) | 42.4 µM (inactive) | 48.2 µM (inactive) | 40.9 µM (inactive) | 40.6 µM (inactive) | 40.8 µM (inactive) | 25.8 µM (inactive) | 89.3 µM (inactive) | 69.8 µM (inactive) | 34.5 µM (inactive) | 34 µM (inactive) | 43.2 µM (inactive) | 90.2 µM (inactive) | – | 78 µM (inactive) | – | 34.1 µM (inactive) | 47.5 µM (inactive) | 20.9 µM (inactive) | 25.3 µM (inactive)
Cc1ccccc1C(C#N)/C(=N/NC(=O)C(=O)NN)C(=O)Nc1cccc(C(F)(F)F)c1 (stereo not given) | > 100 µM (inactive) | > 100 µM (inactive) | > 100 µM (inactive) | – | > 100 µM (inactive) | > 100 µM (inactive) | > 100 µM (inactive) | > 100 µM (inactive) | > 100 µM (inactive) | > 100 µM (inactive) | > 100 µM (inactive) | > 100 µM (inactive) | > 100 µM (inactive) | > 100 µM (inactive) | > 100 µM (inactive) | – | > 100 µM (inactive) | > 100 µM (inactive) | – | > 100 µM (inactive)
O=[N+]([O-])C(C(Cl)=C(Cl)Cl)=C(N1CCOCC1)N1CCOCC1 | > 100 µM (inactive) | > 100 µM (inactive) | > 100 µM (inactive) | – | > 100 µM (inactive) | > 100 µM (inactive) | > 100 µM (inactive) | > 100 µM (inactive) | – | > 100 µM (inactive) | > 100 µM (inactive) | > 100 µM (inactive) | > 100 µM (inactive) | > 100 µM (inactive) | > 100 µM (inactive) | – | > 100 µM (inactive) | 63.2 µM (inactive) | > 100 µM (inactive) | > 100 µM (inactive)
COC(=O)c1ccccc1/N=C/c1ccc(N(CCC#N)S(=O)(=O)c2ccccc2)cc1 | > 100 µM (inactive) | > 100 µM (inactive) | > 100 µM (inactive) | – | > 100 µM (inactive) | > 100 µM (inactive) | > 100 µM (inactive) | > 100 µM (inactive) | > 100 µM (inactive) | > 100 µM (inactive) | > 100 µM (inactive) | > 100 µM (inactive) | > 100 µM (inactive) | > 100 µM (inactive) | > 100 µM (inactive) | – | > 100 µM (inactive) | > 100 µM (inactive) | – | > 100 µM (inactive)
CC(=O)OC1COC(n2c(=S)n(-c3ccccc3)c(=O)c3ccccc32)C(OC(C)=O)C1OC(C)=O (stereo not given) | 89.9 µM (inactive) | > 100 µM (inactive) | 78.5 µM (inactive) | – | > 100 µM (inactive) | 98.2 µM (inactive) | 35 µM (inactive) | 19.9 µM (inactive) | 44.6 µM (inactive) | 74.6 µM (inactive) | > 100 µM (inactive) | 48.9 µM (inactive) | > 100 µM (inactive) | 26.8 µM (inactive) | > 100 µM (inactive) | – | 25.2 µM (inactive) | 21 µM (inactive) | – | 4.05 µM (inactive)
O=C1Cc2c([nH]c3ccc(Br)cc23)-c2ccccc2N1 [KENPAULLONE] | > 75.5 µM (inactive) | > 62.4 µM (inactive) | > 51.5 µM (inactive) | > 100 µM (inactive) | > 100 µM (inactive) | > 28.4 µM (inactive) | > 100 µM (inactive) | > 100 µM (inactive) | – | 3.95 µM (inactive) | > 100 µM (inactive) | > 100 µM (inactive) | 65.8 µM (inactive) | > 100 µM (inactive) | 2.43 µM (inactive) | – | > 100 µM (inactive) | 13.5 µM (inactive) | > 100 µM (inactive) | > 100 µM (inactive)
COCn1cc(C2=C(C)C(=O)C(C)=C(C)C2=O)cn1 | 25.4 µM (inactive) | > 100 µM (inactive) | – | 26.2 µM (inactive) | 18.2 µM (inactive) | 38.1 µM (inactive) | – | > 100 µM (inactive) | > 100 µM (inactive) | 19.5 µM (inactive) | > 100 µM (inactive) | 57.5 µM (inactive) | > 100 µM (inactive) | 17.7 µM (inactive) | > 100 µM (inactive) | – | 85.9 µM (inactive) | 14.9 µM (inactive) | 23.6 µM (inactive) | > 100 µM (inactive)

Source: ChEMBL document CHEMBL1201862, “PubChem BioAssay data set” (2004)
